The target in experiment [1] is T1, KRAS(G12C) (Homo sapiens, UniProt P01116, G12C). As to the kind of experiment: Yeast display binding titration, KRAS(G12C). More on the design: KRAS4B residues 1-174 containing G12C, G12V, G12D, G13D, Q61L, WT; His6 (N, cleaved yes); Avi-tag (N, cleaved yes); made in house; host or cells: E. coli BL21(DE3). Conditions: ARS1620 added during nucleotide exchange. Here is the method: Nucleotide exchange of RAS. Purified RAS proteins used in binding experiment and crystallization were prepared by diluting stock protein (typically containing 20-250 μM RAS) 25 times with 20 mM Tris-Cl buffer pH 7.5 containing 5 mM EDTA, 0.1 mM DTT and 1 mM final concentration of a nucleotide (GDP or GTPγS). Samples were incubated at 30° C. for 30 minutes. MgCl2 was then added to the sample at a final concentration of 20 mM and the solution was further incubated on ice for at least 5 minutes prior to use.
(§1) Monobody development. General procedures for the development of monobodies against purified protein targets have been described previously. After four rounds of phage display library selection using biotinylated KRAS(G12C) at concentrations of 100 nM, 100 nM, 50 nM and 50 nM, the genes encoding monobodies from the enriched phage pool were transferred to a yeast display vector, which was used to construct yeast-display libraries. The yeast display libraries were sorted using a Bio-Rad S3e fluorescence-activated cell sorter or a […] II cell sorter (BD Biosciences). […] Single clones were then screened for selective binding to RAS mutants. The expression of monobodies on the surface of yeast cells were detected using mouse anti-VS and anti-mouse IgG-FITC conjugate. Target binding was detected with neutravidin Dylight650. Yeast cells were analyzed using an iQue flow cytometer (Sartorius). […]
Target sequence in this assay (P01116 1-174 isoform P01116-2 G12C): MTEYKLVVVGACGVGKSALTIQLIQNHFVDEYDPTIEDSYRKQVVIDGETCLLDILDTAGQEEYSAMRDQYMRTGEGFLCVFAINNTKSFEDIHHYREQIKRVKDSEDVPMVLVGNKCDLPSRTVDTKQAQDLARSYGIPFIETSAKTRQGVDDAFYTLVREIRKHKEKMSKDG

The test system of experiment [2] is ERK activation (pERK). Nature of the experiment: ERK activation in dox-inducible monobody-expressing cell lines. Type of experiment: cell-based. Conditions: H358; after 24 and 48 hours; dox-induced expression or ARS1620 treatment. As for the experimental part: Cell signaling assay and quantification of immunoblots. Cells were lysed in RIPA buffer (50 mM Tris-Cl pH 8, 150 mM NaCl, 5 mM EDTA pH8, 0.1% SDS, 1% NP40) supplemented with protease inhibitors (Roche; 5892991001) and phosphatase inhibitors (54 mM β-glycerophosphate, 10 mM NaF, 1 mM sodium vanadate) for 15 minutes on ice, and centrifuged at 15,000 g for 15 minutes. The supernatant was collected and measured for total protein amount using BCA assay (Thermo Scientific; 23227). Lysate (7-20 μg per well) was loaded onto a pre-cast SDS gel (BioRad; 456-1096) followed by electrophoresis. The proteins were then transferred from the gel to a low fluorescence background PVDF membrane (Millipore; IPFL00010) or regular PVDF membrane (Millipore; ISEQ00010) depending on whether fluorescence or chemiluminescence detection was performed. Phospho-ERK was detected using a rabbit anti-pERK antibody (Cell Signaling; 9101S) and total ERK was detected using a rabbit anti-ERK antibody (Cell Signaling; 9102S). Monobody expression was detected using mouse anti-Flag antibody (Sigma; F3165) or anti-HA tag antibody (BioLegend; 901516). Loading control was detected with primary antibody against tubulin-alpha (Thermo Scientific, 62204) or against cytochrome oxidase (COX IV) (Li-Cor, 926-42214). The total RAS level was detected using a pan-RAS antibody (SCBT, sc-166691). The KRAS level was determined using a KRAS-specific antibody (Sigma, WH0003845M1). For fluorescence detection of immunoblots, the membranes were imaged with a Licor Odyssey Clx imager (Li-Cor Bioscience) using IRDye anti-Rabbit 800CW and anti-Mouse 680LT (Li-Cor Bioscience, 926-32211 and 926-68020, respectively) as secondary antibodies. […] Band intensities of western blot were analyzed with Image Studio Lite version 5.2 (Li-Cor Bioscience). To quantify protein abundance in the degradation experiment, the intensities of pERK, RAS, KRAS, and Flag/HA tag bands were first normalized against the loading control of the perspective blot, which were either tubulin-α, COX IV or total ERK, followed by subsequent normalization to the zero time point. […]

Experiment [3] concerns the target T1, KRAS(G12C). Nature of the experiment: Degradation of KRAS in RASless MEFs by VHL-monobody fusions. On the set-up: expressed in transfected cells; host or cells: RASless mouse embryonic fibroblasts. The format is cell-based, mouse. To be noted: MLN4924 1 μM or MG132 5 μM for 24 hours. As for the experimental part:
as §1
Target sequence in this assay (P01116 1-188 isoform P01116-2 G12C): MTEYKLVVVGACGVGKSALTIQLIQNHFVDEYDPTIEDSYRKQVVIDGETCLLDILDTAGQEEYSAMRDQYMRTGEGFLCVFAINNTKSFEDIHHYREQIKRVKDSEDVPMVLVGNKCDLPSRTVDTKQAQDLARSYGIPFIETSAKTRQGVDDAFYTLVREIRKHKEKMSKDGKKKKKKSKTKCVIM
Cell signaling assay and quantification of immunoblots. […] The supernatant was collected and measured for total protein amount using BCA assay (Thermo Scientific; 23227). […] The proteins were then transferred from the gel to a low fluorescence background PVDF membrane (Millipore; IPFL00010) or regular PVDF membrane (Millipore; ISEQ00010) depending on whether fluorescence or chemiluminescence detection was performed. […] The total RAS level was detected using a pan-RAS antibody (SCBT, sc-166691). […]

The structures appear in SMILES notation. Peptide text beside a SMILES is read from it. * marks the point of attachment. Cbz = O=C(OCc1ccccc1)*

For the compound `C=CC(=O)N1CCN(c2ncnc3c(F)c(-c4c(O)cccc4F)c(Cl)cc23)CC1` [ARS1620], the “binding of 12VC1 to KRAS(G12C) after reaction with ARS1620” value in experiment [1] is reported as “abolished”. Also, the “ERK activation in H358 cells” value in experiment [2] was “effectively inhibited”.

Regarding `CC(C)C[C@@H](C=O)NC(=O)[C@H](CC(C)C)NC(=O)[C@H](CC(C)C)NC(=O)OCc1ccccc1` [MG132] (Cbz-Leu-Leu-Leu-aldehyde), the “effect on RAS degradation by VHL-monobody fusion” value in experiment [3] is recorded as “rescued”.

With `NS(=O)(=O)OC[C@@H]1C[C@@H](n2ccc3c(N[C@H]4CCc5ccccc54)ncnc32)C[C@@H]1O` [MLN4924], the “effect on RAS degradation by VHL-monobody fusion” value in experiment [3] is given as “rescued”.

(Values after patent US12049483B2, “Selective and noncovalent inhibitors of oncogenic RAS mutants” (New York University, priority 2020, dated 2024).)
